Measured values from PMC10867458, “Depolymerization of actin filaments by Cucurbitacin I through binding G‐actin” (Food Science & Nutrition, 2023).
Like-named read-outs stand apart in the source and are kept apart here.

Tests used:
[1] = target: T1, G-actin (rabbit skeletal muscle actin) (Oryctolagus cuniculus, UniProt P68135); test: differential scanning fluorimetry (SYPRO orange) with Kd; also pyrene-actin polymerization inhibition; assay type: binding
T1 construct: gene ACTA1

[2] = target: T1, G-actin (rabbit skeletal muscle actin); test: pyrene-actin polymerization assay, […] (V50 […] vs control […]); assay type: biochemical
[3] = target: T1, G-actin (rabbit skeletal muscle actin); test: as above; assay type: biochemical; remark: listed apart in the source

`CC(C)(O)/C=C/C(=O)[C@](C)(O)[C@H]1[C@H](O)C[C@@]2(C)[C@@H]3CC=C4[C@@H](C=C(O)C(=O)C4(C)C)[C@]3(C)C(=O)C[C@]12C` [CuI, Cucurbitacin I] was tested, and the Kd [1] was 0.03 ± 0.0025 µM.
`C=C1[C@@H](C)[C@H]2[C@H](Cc3ccccc3)NC(=O)[C@]23[C@H](OC(C)=O)/C=C/[C@@](C)(O)C(=O)[C@@H](C)C/C=C/[C@H]3[C@@H]1O` [Cytochalasin D] was tested, and the “V 50” value [2] was 77.59 ± 7776.
For `C/C1=C\[C@H](C)C[C@H](C)OC(=O)C[C@H](c2ccc(O)cc2)NC(=O)[C@@H](Cc2c(Br)[nH]c3ccccc23)N(C)C(=O)[C@H](C)NC(=O)[C@@H](C)C1` [Jasplakinolide], the “V 50” value [3] was 54.7 ± 5114.
